Read-outs that look alike come from different tables or passages of the source.
Target: T1, human nAChRα6-α3 chimera, in addition to β2 and β3^V273S subunits (Homo sapiens, UniProt P32297+Q15825)
T1 construct: expressed in transfected cells
Test: fluorescence-based calcium assay: inhibition of nicotine stimulated nAChRα6 activity (FLIPR)
Conditions: HEK cell line stably expressing the receptor, 10 min pre-incubation, nicotine EC80, 10-point curve, duplicate wells
Summary of the method: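 HEK cells stably expressing the human α6-α3 chimera with β2 and β3^V273S were loaded with calcium dye at 30° C. Compounds were pre-incubated for 10 min before nicotine at EC80, and the fluorescence change was read on a FLIPR. Ten-point half-log concentration-response, duplicate wells.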

T1 sequence (Q05901 25-458 V273S): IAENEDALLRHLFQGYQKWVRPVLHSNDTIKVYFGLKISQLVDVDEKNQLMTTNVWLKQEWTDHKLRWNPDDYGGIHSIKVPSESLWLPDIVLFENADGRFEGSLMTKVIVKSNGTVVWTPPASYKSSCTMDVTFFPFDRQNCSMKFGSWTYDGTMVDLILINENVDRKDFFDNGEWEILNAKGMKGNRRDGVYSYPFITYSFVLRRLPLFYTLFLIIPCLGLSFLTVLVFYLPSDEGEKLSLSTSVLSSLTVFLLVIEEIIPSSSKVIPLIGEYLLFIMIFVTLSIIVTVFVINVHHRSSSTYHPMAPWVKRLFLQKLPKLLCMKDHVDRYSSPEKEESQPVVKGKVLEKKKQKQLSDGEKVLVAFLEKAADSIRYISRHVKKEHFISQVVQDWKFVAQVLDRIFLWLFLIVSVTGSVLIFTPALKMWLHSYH
T1 sequence (P17787 26-502, stated change not applied, further chain): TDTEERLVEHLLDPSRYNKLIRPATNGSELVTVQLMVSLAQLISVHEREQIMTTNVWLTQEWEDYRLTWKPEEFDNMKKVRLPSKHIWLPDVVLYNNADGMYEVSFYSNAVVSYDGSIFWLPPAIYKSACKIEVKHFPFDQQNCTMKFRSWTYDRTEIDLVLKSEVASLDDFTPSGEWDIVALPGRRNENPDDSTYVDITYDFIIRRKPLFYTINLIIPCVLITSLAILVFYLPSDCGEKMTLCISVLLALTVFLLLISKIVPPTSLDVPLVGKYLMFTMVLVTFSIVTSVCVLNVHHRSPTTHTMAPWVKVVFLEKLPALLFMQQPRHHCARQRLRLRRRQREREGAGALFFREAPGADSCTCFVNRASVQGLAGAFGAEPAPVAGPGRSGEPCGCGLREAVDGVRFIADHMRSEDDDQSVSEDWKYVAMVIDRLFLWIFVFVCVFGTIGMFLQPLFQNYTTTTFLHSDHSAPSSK
T1 sequence (Q15825+P32297 fused with the stated changes): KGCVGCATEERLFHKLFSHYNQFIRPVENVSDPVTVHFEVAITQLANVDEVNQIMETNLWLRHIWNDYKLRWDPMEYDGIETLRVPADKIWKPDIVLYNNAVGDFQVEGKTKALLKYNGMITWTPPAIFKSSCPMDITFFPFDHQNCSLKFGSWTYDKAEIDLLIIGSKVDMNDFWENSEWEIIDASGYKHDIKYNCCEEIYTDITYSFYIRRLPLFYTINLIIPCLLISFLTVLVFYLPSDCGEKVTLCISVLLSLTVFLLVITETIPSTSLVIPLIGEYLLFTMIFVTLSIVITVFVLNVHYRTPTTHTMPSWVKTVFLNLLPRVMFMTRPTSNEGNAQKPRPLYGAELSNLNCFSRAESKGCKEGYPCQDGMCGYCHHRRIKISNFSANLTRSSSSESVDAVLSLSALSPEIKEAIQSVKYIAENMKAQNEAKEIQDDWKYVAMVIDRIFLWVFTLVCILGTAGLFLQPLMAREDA

Compound	IC50 (read-out: IC50)	IC50 (IC50 (μM))
Cc1nc(NC[C@H]2NCC[C@@H]2F)ncc1-c1ccc(C(F)(F)F)cc1F (single isomer, unassigned) [Example 133a, 5-(2-fluoro-4-(trifluoromethyl)phenyl)-N-(((2*S,3*R)-3-fluoropyrrolidin-2-yl)methyl)-4-methyl-pyrimidin-2-amine]	0.305 µM	
COc1ccc(-c2cnc(NCC3CCCOC3)nc2C)c(F)c1 (stereo not drawn) [Example 51, 5-(2-fluoro-4-methoxyphenyl)-4-methyl-N-((tetrahydro-2H-pyran-3-yl)methyl)pyrimidin-2-amine]	1.1 µM	
Cc1nc(NC[C@H]2CCCNC2)ncc1-c1ccc(C(F)(F)F)cc1F [Example 127, (S)-5-(2-fluoro-4-(trifluoromethyl)phenyl)-4-methyl-N-(piperidin-3-ylmethyl)pyrimidin-2-amine]	0.119 µM	
COc1ccc(-c2cnc(NC3CCC(N(C)C)C3)nc2C)c(F)c1 (single isomer, unassigned) [Example 44b, N^1-(5-(2-fluoro-4-methoxyphenyl)-4-methyl-pyrimidin-2-yl)-N^3,N^3-dimethylcyclopentane-1,3-diamine]	0.088 µM	
Cc1nc(NC[C@@H]2CCCN2CC(F)(F)F)ncc1-c1ccc(F)cc1F [Example 95b, (S)-5-(2,4-difluorophenyl)-4-methyl-N-((1-(2,2,2-trifluoroethyl)pyrrolidin-2-yl)methyl)pyrimidin-2-amine]	0.07 µM	
COc1ccc(-c2cnc(NC3CCCC(OC)C3)nc2C)c(F)c1 (single isomer, unassigned) [Example 53b, 5-(2-fluoro-4-methoxyphenyl)-N-(3-methoxycyclohexyl)-4-methyl-pyrimidin-2-amine]	0.734 µM	
Cc1nc(NC[C@@H]2CCCN2C)ncc1-c1ccc(C(F)(F)F)cc1F [Example 91b, (S)-5-(2-fluoro-4-(trifluoromethyl)phenyl)-4-methyl-N-((1-methylpyrrolidin-2-yl)methyl)pyrimidin-2-amine]	0.028 µM	
COc1ccc(-c2cnc(NC3CCN(C)CC3)nc2C)c(F)c1 [Example 40, 5-(2-fluoro-4-methoxyphenyl)-4-methyl-N-(1-methylpiperidin-4-yl) pyrimidin-2-amine]	0.068 µM	
Cc1nc(NCC2CCCCN2)ncc1-c1ccc(C(F)(F)F)cc1F (stereo not drawn) [Example 104, 5-(2-fluoro-4-(trifluoromethyl)phenyl)-4-methyl-N-(2-piperidinylmethyl) pyrimidin-2-amine]	0.027 µM	
Cc1nc(N[C@@H]2CN3CCC2CC3)ncc1-c1ccc(C(F)(F)F)cc1F [Example 120, (S)—N-(5-(2-fluoro-4-(trifluoromethyl)phenyl)-4-methyl-pyrimidin-2-yl) quinuclidin-3-amine]	0.179 µM	
COc1ccc(-c2cnc(NCC3COCCN3C)nc2C)c(F)c1 (stereo not drawn) [Example 32, 5-(2-fluoro-4-methoxyphenyl)-4-methyl-N-((4-methylmorpholin-3-yl)methyl)pyrimidin-2-amine]	0.099 µM	
CN(C)C1CCCC(Nc2ncc(-c3ccc(F)cc3F)c(C#N)n2)C1 (single isomer, unassigned) [Example 59a, 5-(2,4-difluorophenyl)-2-((3-(dimethylamino)cyclohexyl)amino) pyrimidine-4-carbonitrile]	0.202 µM	
Cc1nc(NC2CCCC(N(C)C)C2)nnc1-c1ccc(F)cc1F (single isomer, unassigned) [Example 39b, N^1-(6-(2,4-difluorophenyl)-5-methyl-1,2,4-triazin-3-yl)-N^3,N^3-dimethylcyclohexane-1,3-diamine]	0.901 µM	
Cc1nc(NCC[C@@H]2CCCN2C)ncc1-c1ccc(C(F)(F)F)cc1F [Example 106b, (S)-5-(2-fluoro-4-(trifluoromethyl)phenyl)-4-methyl-N-(2-(1-methylpyrrolidin-2-yl)ethyl)pyrimidin-2-amine]	0.138 µM	
CN(C)C1CCCC(Nc2ncc(-c3ccc(F)cc3F)c(C#N)n2)C1 (single isomer, unassigned) [Example 59b, 5-(2,4-difluorophenyl)-2-((3-(dimethylamino)cyclohexyl)amino) pyrimidine-4-carbonitrile]	0.134 µM	
Cc1nc(NCCC2CCCN2C)ncc1-c1ccc(C(F)(F)F)cc1F (stereo not drawn) [Example 106, 5-(2-fluoro-4-(trifluoromethyl)phenyl)-4-methyl-N-(2-(1-methylpyrrolidin-2-yl)ethyl)pyrimidin-2-amine]	0.054 µM	
Cc1nc(N[C@H]2CN3CCC2CC3)ncc1-c1ccc(C(F)(F)F)cc1F [Example 119, (R)—N-(5-(2-fluoro-4-(trifluoromethyl)phenyl)-4-methyl-pyrimidin-2-yl) quinuclidin-3-amine]	0.155 µM	
Cc1nc(NC2CC3CCC(C2)N3C)ncc1-c1ccc(F)cc1F (stereo not drawn) [Example 12, N-(5-(2,4-difluorophenyl)-4-methyl-pyrimidin-2-yl)-8-methyl-8-azabicyclo[3.2.1]octan-3-amine]	0.108 µM	

Compound	IC50 (read-out: IC50)	IC50 (IC50 (μM))
[2H]C([2H])([2H])N1CCC[C@@H]1CNc1ncc(-c2ccc(F)cc2F)c(C)n1 [Example 90b, (R)-5-(2,4-difluorophenyl)-4-methyl-N-((1-(trideuteriomethyl)pyrrolidin-2-yl)methyl)pyrimidin-2-amine]	0.186 µM	
Cc1nc(NC(=O)[C@@H]2CCCN2C)ncc1-c1ccc(C(F)(F)F)cc1F [Example 140, (S)—N-(5-(2-fluoro-4-(trifluoromethyl)phenyl)-4-methyl-pyrimidin-2-yl)-1-methylpyrrolidine-2-carboxamide]	0.079 µM	
Cc1nc(NC2CCN3CCCC23)ncc1-c1ccc(F)cc1F (single isomer, unassigned) [Example 86a, N-(5-(2,4-difluorophenyl)-4-methyl-pyrimidin-2-yl)hexahydro-1H-pyrrolizin-1-amine]	0.122 µM	
COc1ccc(-c2cnc(NCC3CCCN(C)C3)nc2C)c(F)c1 (stereo not drawn) [Example 30, 5-(2-fluoro-4-methoxyphenyl)-4-methyl-N-((1-methylpiperidin-3-yl)methyl) pyrimidin-2-amine]	0.082 µM	
CN1CCCC1CCNc1ncc(-c2ccccc2)cn1 (stereo not drawn) [Example 2, N-(2-(1-methylpyrrolidin-2-yl)ethyl)-5-phenylpyrimidin-2-amine]	0.302 µM	
COc1ccc(F)c(-c2cnc(NCC3COCCN3C)nc2C)c1 (stereo not drawn) [Example 61, 5-(2-fluoro-5-methoxyphenyl)-4-methyl-N-((4-methylmorpholin-3-yl)methyl)pyrimidin-2-amine]	0.533 µM	
Cc1nc(NC2CCCN(C(C)C)C2)ncc1-c1ccc(F)cc1F (stereo not drawn) [Example 72, 5-(2,4-difluorophenyl)-N-(1-isopropylpiperidin-3-yl)-4-methyl-pyrimidin-2-amine]	0.052 µM	
Cc1nc(NCC2COCCN2C)ncc1-c1ccc(F)cc1F (single isomer, unassigned) [Example 79b, 5-(2,4-difluorophenyl)-4-methyl-N-((4-methylmorpholin-3-yl)methyl) pyrimidin-2-amine]	0.296 µM	
CN1CCC(Nc2ncc(-c3ccc(F)cc3F)c(C#N)n2)CC1 [Example 66, 5-(2,4-difluorophenyl)-2-((1-methylpiperidin-4-yl)amino)pyrimidine-4-carbonitrile]	0.094 µM	
Cc1nc(N[C@H]2CCCC[C@@H]2N(C)C)ncc1-c1ccc(C(F)(F)F)cc1F [Example 109, (1S,2S)—N^1-(5-(2-fluoro-4-(trifluoromethyl)phenyl)-4-methyl-pyrimidin-2-yl)-N^2,N^2-dimethyl-cyclohexane-1,2-diamine]	0.096 µM	
Cc1nc(N[C@@H]2CNC[C@H]2O)ncc1-c1ccc(C(F)(F)F)cc1F [Example 115, (3R,4R)-4-((5-(2-fluoro-4-(trifluoromethyl)phenyl)-4-methyl-pyrimidin-2-yl)amino)pyrrolidin-3-ol]	0.121 µM	
Cc1nc(NCC2CCN(C)C2)ncc1-c1ccc(C(F)(F)F)cc1F (stereo not drawn) [Example 99, 5-(2-fluoro-4-(trifluoromethyl)phenyl)-4-methyl-N-((1-methylpyrrolidin-3-yl)methyl)pyrimidin-2-amine]	0.083 µM	
Cc1nc(NCC2CCC(C)N2C)ncc1-c1ccc(C(F)(F)F)cc1F (single isomer, unassigned) [Example 138c, N-(((2*R,5*S)-1,5-dimethylpyrrolidin-2-yl)methyl)-5-(2-fluoro-4-(trifluoromethyl)phenyl)-4-methyl-pyrimidin-2-amine]	0.069 µM	
COc1ccc(-c2cnc(NC3CCCC(N(C)C)C3)nc2C#N)c(F)c1 (single isomer, unassigned) [Example 56a, 2-((3-(dimethylamino)cyclohexyl)amino)-5-(2-fluoro-4-methoxyphenyl) pyrimidine-4-carbonitrile]	0.133 µM	
COc1ccc(-c2nnc(NCC3CCCN3C)nc2C)c(F)c1 (single isomer, unassigned) [Example 18a, 6-(2-fluoro-4-methoxyphenyl)-5-methyl-N-((1-methylpyrrolidin-2-yl)methyl)-1,2,4-triazin-3-amine]	0.331 µM	
Cc1nc(NC(=O)[C@H]2CCCN2C)ncc1-c1ccc(C(F)(F)F)cc1F [Example 139, (R)—N-(5-(2-fluoro-4-(trifluoromethyl)phenyl)-4-methyl-pyrimidin-2-yl)-1-methylpyrrolidine-2-carboxamide]	0.086 µM	
COc1ccc(-c2cnc(NCC3CCCCN3C)nc2C)c(Cl)c1 (stereo not drawn) [Example 35, 5-(2-chloro-4-methoxyphenyl)-4-methyl-N-((1-methylpiperidin-2-yl)methyl) pyrimidin-2-amine]		0.029 µM
COc1ccc(-c2cnc(NCc3cncn3C)nc2C)c(Cl)c1 [Example 63, 5-(2-chloro-4-methoxyphenyl)-4-methyl-N-((1-methyl-1H-imidazol-5-yl)methyl)pyrimidin-2-amine]	0.141 µM	
